Assay results as given in article PMC8394356 (Biomedicines, 2021).
Structures can show the parent of a compound that is named as a salt. Where two headings read alike, the source gives them in different places.

How the values were obtained:
[1] = system: scopolamine-induced amnesiac ICR mice; experiment: Morris water maze in scopolamine-induced amnesiac ICR mice; format: in vivo; settings: donepezil 5 mg/kg, scopolamine 1 mg/kg i.p.
Procedure: (§1) The oral administration of TT-hull extracts or purified compounds in scopolamine-induced amnesiac ICR mice was performed according to the previous report, with some modifications. The 8-week-old male ICR mice were purchased from the Laboratory Animal Center, College of Medicine, National Taiwan University (Taipei, Taiwan). Normal diets (Prolab® RMH2500, Jefferson City, MO, USA) and water were provided during the animal experiments. All animal experimental protocols were approved by the Institutional Animal Care and Use Committee of Taipei Medical University (LAC-2016-0275). After one week of acclimation, for treatments of TT-hull extracts to test prevention, the mice were randomly divided into seven groups (6 heads/group), including the blank, the control, the donepezil-positive control, and the four extract-administered groups. […] Except for the blank group, the mice in each group were intraperitoneally injected with scopolamine (1 mg/kg) 30 min after the oral sample administration, and the mice in the blank group were injected with an equal volume of PBS. After being injected with scopolamine or PBS for another 30 min, each mouse was evaluated by a passive avoidance test at day 13 to day 14 and by the Morris water maze from day 17 to day 19. At the end of the experiments at day 20, the mice were sacrificed. For oral administration of purified compounds to test prevention, the ICR mice were pre-administered orally with TT-1 (100 mg/kg, 200 mg/kg) or TT-2 (300 mg/kg) once a day by gavage from day 1 to day 5; […]. From day 6 to day 11, the procedure was the same for the oral administration of the TT-hull extracts. Each mouse was evaluated by a passive avoidance test at day 6 to day 7 and by the Morris water maze from day 8 to day 10. At the end of the experiments at day 11, the mice were sacrificed, and the brain tissue was isolated and stored at −80 °C for further measurements.
The passive avoidance test and Morris water maze were used to evaluate the learning and memory functions of scopolamine-treated mice after the treatments with TT-hull extracts or purified compounds, by following the previous report. The apparatus of the passive avoidance test included a light box and a dark box separated by a guillotine door in a shuttle chamber (AccuScan Instruments Inc, Columbus, OH, USA), and a wired metal floor was placed in the dark box to provide electric foot shocks during the acquisition trial. On the first day of the passive avoidance test (as the acquisition trial), each mouse was acclimatized to the shuttle chamber for 30 min, and then placed in the light box. The mouse entered the dark box, the guillotine door was immediately closed, and, at the same time, an electric shock (0.3 mA) was delivered for 3 sec to the mouse via the wired metal floor. The time for which each mouse stayed in the light box (step-through latency of the acquisition trial, sec) was recorded. […] On the second day of the passive avoidance test (as the retention trial), the same protocol was performed, except that there were no electric foot shocks in the dark box, and the time for which each mouse stayed in the light box (step-through latency of the retention trial) was recorded. For the Morris water maze evaluations, a three-successive-day training protocol was performed; each mouse was trained for 1 min to find and climb onto the platform twice a day at 30 min intervals. For the second training procedure of the third day (as the reference memory task), the time required for the mouse to find and climb onto the platform from the starting point was recorded as the latency (sec). The platform was then removed (as the probe test), and the swimming time and crossing time in the platform quadrant were recorded for each mouse.

[2] = system: scopolamine-induced amnesiac ICR mice; experiment: Passive avoidance test in scopolamine-induced amnesiac ICR mice; format: in vivo; settings: scopolamine 1 mg/kg i.p.
Procedure: as §1, with “At the end of the experiments at day 11, the mice were sacrificed, and the brain tissue was isolated and stored at −80 °C for further measurements.” left out
The passive avoidance test and Morris water maze were used to evaluate the learning and memory functions of scopolamine-treated mice after the treatments with TT-hull extracts or purified compounds, by following the previous report. […] The time for which each mouse stayed in the light box (step-through latency of the acquisition trial, sec) was recorded. […] On the second day of the passive avoidance test (as the retention trial), the same protocol was performed, except that there were no electric foot shocks in the dark box, and the time for which each mouse stayed in the light box (step-through latency of the retention trial) was recorded. […] For the second training procedure of the third day (as the reference memory task), the time required for the mouse to find and climb onto the platform from the starting point was recorded as the latency (sec). The platform was then removed (as the probe test), and the swimming time and crossing time in the platform quadrant were recorded for each mouse.

Aβ (1-42) peptide = biological target: T1, Aβ (1-42) peptide (Homo sapiens, UniProt P05067); experiment: Inhibition of Aβ (1-42) aggregation in vitro (ThT fluorescent assay); format: biochemical; settings: for inhibition at 10 µM: read-out: inhibition of Aβ aggregation
T1 construct: the synthetic Aβ (1-42) peptide was weighed in an Eppendorf tube; purchased Kelowna International Scientific Inc; host or cells: synthetic peptide
T1 sequence (P05067 672-713): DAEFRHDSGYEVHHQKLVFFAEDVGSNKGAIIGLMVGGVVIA
Procedure: The ThT fluorescent assay was used to monitor the isolated compounds from the TT-hull on inhibition of Aβ (1-42) peptide aggregations. For the preparation of the Aβ stock film, the synthetic Aβ (1-42) peptide was weighed in an Eppendorf tube and dissolved in HFIP to prepare a 1 mM stock solution; then, HFIP solvent was evaporated to form the Aβ (1-42) film. The stock film was dissolved in 100 μL of 60 mM NaOH, and further diluted with 50 mM phosphate buffer (pH7.4, containing 150 mM sodium chloride, 1 mM EDTA, and 0.02% sodium azide). The 125 μL working solution contained 10 μM Aβ (1-42) peptide, purified compounds (10, 20, and 40 μM in DMSO), and 10 μM ThT solution, which was gently shaken at 37 °C for 24 h. The mixture without the sample additions was the control. The fluorescence ratios of Ex440nm/Em486nm were recorded at a time of 0 h and 24 h, and changes in fluorescence over a 24 h period were expressed as ΔE. The inhibition of Aβ aggregation (%) was calculated as [(ΔEcontrol−ΔEsample)/(ΔEcontrol)] × 100%.

[3] = Oxygen radical absorbance capacity (ORAC), OxiSelect Assay Kit; settings: for ORAC activities, fold higher than those of Trolox / ORAC activities relative to those of Trolox: compound at 10 μM; for ORAC values: compound at a concentration of 10 μM; for ORAC activities relative to those of Trolox: % of Trolox
Procedure: The antioxidant index of free radical scavenging activities of the extracts (1.5 or 2.5 μg/mL) and purified compounds (10 μM) of TT-hull were determined by a commercial OxiSelect™ Assay Kit for oxygen radical absorbance capacity (ORAC) determination. The standard curve of ORAC was plotted using different concentrations of water-soluble vitamin E analog (the compound’s name was Trolox, 6-hydroxy-2,5,7,8-tetramethylchroman-2-carboxylic acid) at 2.5, 5, 10, 20, 40, and 60 μM. Therefore, the ORAC activities of TT-hull extracts or purified compounds were calculated equivalently to the Trolox effects and expressed as Trolox equivalents (μM).

[4] = system: scopolamine-induced amnesiac mice; settings: 10 mg/kg, with or without nanoparticle-delivered formulation; cited from earlier work
recombinant human AChE = biological target: T2, recombinant human AChE (Homo sapiens, UniProt P22303); experiment: biochemical; settings: for IC50: isolated compounds from TT-hull-50EE, recombinant human AChE
T2 construct: purchased R&D Systems Inc. 7574-CE
T2 sequence (P22303 32-614): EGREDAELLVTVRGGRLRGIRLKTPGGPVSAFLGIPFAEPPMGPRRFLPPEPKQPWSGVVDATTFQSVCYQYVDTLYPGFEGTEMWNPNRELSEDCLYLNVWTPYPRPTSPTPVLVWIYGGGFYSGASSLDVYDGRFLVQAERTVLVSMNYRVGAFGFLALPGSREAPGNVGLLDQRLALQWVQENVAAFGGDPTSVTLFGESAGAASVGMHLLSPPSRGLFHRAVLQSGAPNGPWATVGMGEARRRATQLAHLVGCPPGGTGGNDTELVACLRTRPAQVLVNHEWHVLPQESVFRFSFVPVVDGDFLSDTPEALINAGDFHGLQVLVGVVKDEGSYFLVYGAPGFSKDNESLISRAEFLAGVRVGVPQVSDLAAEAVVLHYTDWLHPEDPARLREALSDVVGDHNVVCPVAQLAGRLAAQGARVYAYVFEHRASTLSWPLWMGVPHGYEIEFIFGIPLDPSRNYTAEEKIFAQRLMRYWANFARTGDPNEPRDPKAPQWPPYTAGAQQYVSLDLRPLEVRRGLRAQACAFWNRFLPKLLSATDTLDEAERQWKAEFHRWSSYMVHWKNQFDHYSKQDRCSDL
Procedure: The acetylthiocholine iodide and DTNB were used for in vitro AChE inhibitory activity assays following the previous report. […] An equal volume of DMSO instead of the sample solution was used as a blank and expressed as 100% AChE activity. The absorbance changes were recorded at 405 nm for 10 min. The AChE inhibition (%) was calculated as follows: [(A405blank−A405sample)/(A405blank)] × 100%.

[5] = biological target: T3, AChE activity in brain extracts (Mus musculus, UniProt P21836); format: in vivo; settings: oral TT-1 200 mg/kg, donepezil 5 mg/kg; scopolamine-induced amnesiac mice
T3 construct: from tissue; host or cells: whole brain of ICR mice
T3 sequence (P21836 32-614): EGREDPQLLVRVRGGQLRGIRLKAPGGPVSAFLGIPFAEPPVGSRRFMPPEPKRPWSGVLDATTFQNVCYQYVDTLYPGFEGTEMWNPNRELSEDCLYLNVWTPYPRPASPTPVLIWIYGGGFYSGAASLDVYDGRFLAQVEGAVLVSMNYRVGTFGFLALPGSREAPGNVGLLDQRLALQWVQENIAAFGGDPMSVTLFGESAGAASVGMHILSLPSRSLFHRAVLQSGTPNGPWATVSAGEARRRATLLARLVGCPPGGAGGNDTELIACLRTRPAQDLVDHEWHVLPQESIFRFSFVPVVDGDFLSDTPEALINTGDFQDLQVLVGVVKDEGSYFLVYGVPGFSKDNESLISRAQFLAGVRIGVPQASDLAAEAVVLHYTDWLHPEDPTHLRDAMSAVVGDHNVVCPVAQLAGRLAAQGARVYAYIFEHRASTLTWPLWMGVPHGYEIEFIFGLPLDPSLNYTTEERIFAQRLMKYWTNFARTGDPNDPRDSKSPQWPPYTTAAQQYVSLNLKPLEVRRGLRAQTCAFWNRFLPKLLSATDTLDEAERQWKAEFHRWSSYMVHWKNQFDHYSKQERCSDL
Procedure: (§2) At the end of the TT-1 and TT-2 treatments, mice were sacrificed, and the whole brain of each ICR mouse was isolated and immediately stored at −80 °C for the measurement of residual AChE activity and the reduced GSH levels. The whole brain of each mouse was ground into powder by means of a mortar and pestle in liquid nitrogen and then extracted by adding 1 mL of 100 mM phosphate buffer (pH 7.5) to the ice bath. […] The residual AChE activity of each brain extract was expressed as [A405sample−A405sample blank]/μg protein.

[6] = system: reduced form GSH contents in brain extracts; experiment: Reduced GSH levels in brain tissue extracts of treated mice; format: in vivo; settings: oral TT-1 200 mg/kg, donepezil 5 mg/kg; scopolamine-induced amnesiac mice
Procedure: as §2

[7] = cited from earlier work
[8] = extract experiment, oral 50EE or HWE 100 and 200 mg/kg
[9] = purified compound experiment, oral TT-1 200 mg/kg
[10] = purified compound experiment, oral TT-1 100 and 200 mg/kg, TT-2 300 mg/kg, donepezil 5 mg/kg
[11] = 1:1 ratio of Aβ to compound, 10 μM:10 μM, 37 °C, 24 h
[12] = 1:2 ratio of Aβ to compound, 10 μM to 20 μM, 37 °C, 24 h
[13] = 1:4 ratio of Aβ to compound, 10 μM to 40 μM, 37 °C, 24 h
[14] = IC50 of AChE inhibitory activity
[15] = read-out: IC50 of AChE inhibitory activity

Row | Compound | step-through latency in the retention trial vs control [2, 10] | inhibition at 10 µM (Aβ (1-42) peptide; [11]) | inhibition of Aβ aggregation (Aβ (1-42) peptide; [12]) | inhibition of Aβ aggregation (Aβ (1-42) peptide; [13]) | ORAC activities, fold higher than those of Trolox [3] | ORAC values [3] | IC50 (recombinant human AChE; [15]) | other results
1 | COc1cc2c(cc1OC)C(=O)C(CC1CCN(Cc3ccccc3)CC1)C2 (centres unmarked) [donepezil, donepezil hydrochloride] | showed longer step-through latency | – | – | – | – | – | – | crossing numbers in the target quadrant, probe test, vs control [1, 8]: higher crossing numbers in the target quadrant; time spent in the target quadrant, probe test, vs control [1, 8]: spent more time in the target quadrant; crossing numbers in the target quadrant, probe test, vs control [1, 9]: higher crossing numbers in the target quadrant; time spent in the target quadrant, probe test, vs control [1, 9]: longer time spent in the target quadrant; step-through latency in the retention trial vs control ([2]; extract experiment, oral 50EE or HWE 100 and 200 mg/kg daily day 1-20, donepezil 5 mg/kg day 11-20): remained for a longer period of time in the light box
2 | O=C(O)c1cc(O)c(O)c(O)c1 [TT-6, gallic acid] | – | 37.2% | 77.73% | 88.19% | 2.4 fold | 23.7 μM Trolox equivalents | – | learning behavior functions in the probe test of the Morris water maze [4]: showed improved learning behavior functions; IC50 (recombinant human AChE; [14]): 246 µM
3 | O=C(OC[C@H]1O[C@@H](OC(=O)c2cc(O)c(O)c(O)c2)[C@H](OC(=O)c2cc(O)c(O)c(O)c2)[C@@H](OC(=O)c2cc(O)c(O)c(O)c2)[C@@H]1O)c1cc(O)c(O)c(O)c1 [TT-2, 1,2,3,6-tetra-O-galloyl-β-D-glucopyranoside] | no significant differences (p > 0.05) | 58.5% | 88.08% | – | close to two-fold higher | 18.7 μM Trolox equivalents | 84.2 µM | –
4 | O=C(OC[C@H]1O[C@@H](OC(=O)c2cc(O)c(O)c(O)c2)[C@H](OC(=O)c2cc(O)c(O)c(O)c2)[C@@H](O)[C@@H]1O)c1cc(O)c(O)c(O)c1 [TT-4, 1,2,6-tri-O-galloyl-β-D-glucopyranoside] | – | 54.6% | 86.82% | 100% | close to two-fold higher | 18.1 μM Trolox equivalents | > 800 µM | inhibition at 800 µM (recombinant human AChE; at concentration of 800 μM): < 50%
5 | O=C(OC1O[C@@H]2COC(=O)c3cc(O)c(O)c(O)c3-c3c(cc(O)c(O)c3O)C(=O)O[C@H]2[C@H](OC(=O)c2cc(O)c(O)c(O)c2)[C@H]1OC(=O)c1cc(O)c(O)c(O)c1)c1cc(O)c(O)c(O)c1 (some centres unmarked) [TT-1, Tellimagrandin II] | showed longer step-through latency | 75.8% | 100% | 100% | – | 5.1 μM Trolox equivalents | – | crossing numbers in the target quadrant, probe test, vs control [1, 9]: higher crossing numbers in the target quadrant; time spent in the target quadrant, probe test, vs control [1, 9]: longer time spent in the target quadrant; ORAC activities relative to those of Trolox [3]: 50%; AChE activity in brain extracts vs control [5]: lower AChE activity; reduced form GSH contents in brain extracts vs control [6]: higher reduced form GSH contents; remaining contents ([7]; acidic buffers (pH 2 or pH 4) and simulated gastric fluids (pH 1.2)): higher than 90%; residual content ([7]; simulated intestinal fluids (pH 7.5) at 37 °C for 9 h): 31.40%; IC50 (recombinant human AChE; [14]): 18.6 µM
6 | O=C(O[C@@H]1O[C@H](CO)[C@@H](O)[C@H](OC(=O)c2cc(O)c(O)c(O)c2)[C@H]1OC(=O)c1cc(O)c(O)c(O)c1)c1cc(O)c(O)c(O)c1 [TT-3, 1,2,3-tri-O-galloyl-β-D-glucopyranoside] | – | 42.7% | 92.44% | – | close to two-fold higher | 15.1 μM Trolox equivalents | 371 µM | –
7 | O=C(O[C@H]1[C@@H]2OC(=O)c3cc(O)c(O)c(O)c3-c3c(cc(O)c(O)c3O)C(=O)OC[C@H]2OC(O)[C@@H]1OC(=O)c1cc(O)c(O)c(O)c1)c1cc(O)c(O)c(O)c1 (some centres unmarked) [TT-8, tellimagrandin I] | – | – | 97.13% | 100% | – | 7.5 μM Trolox equivalents | 18.4 µM | inhibition at 10 µM (Aβ (1-42) peptide): 66.6%; ORAC activities relative to those of Trolox [3]: 75%
